# According to ChEMBL document CHEMBL3580659, “One-pot multicomponent synthesis of indole incorporated thiazolylcoumarins and their antibacterial, anticancer and DNA cleavage studies” (2015):
# Key:
# Format in all cases: functional
# Malme-3M = assay: Cytotoxicity against human MALME-3M cells assessed as cell growth level at 100 uM after 48 hrs by sulforhodamine B assay
# SK-MEL-5 = assay: Cytotoxicity against human SK-MEL-5 cells assessed as cell growth level at 100 uM after 48 hrs by sulforhodamine B assay
# [1] = Cytotoxicity against human NCI-ADR-RES cells assessed as cell growth level at 100 uM after 48 hrs by sulforhodamine B assay
# BT-549 = assay: Cytotoxicity against human BT549 cells assessed as cell growth level at 100 uM after 48 hrs by sulforhodamine B assay
# NCI-H322M [2] = assay: Cytotoxicity against human NCI-H322M cells assessed as cell growth level at 10 nM after 48 hrs by sulforhodamine B assay
# NCI-H460 = assay: Cytotoxicity against human NCI-H460 cells assessed as cell growth level at 10 nM after 48 hrs by sulforhodamine B assay
# HT-29 = assay: Cytotoxicity against human HT-29 cells assessed as cell growth level at 10 nM after 48 hrs by sulforhodamine B assay
# SW-620 [3] = assay: Cytotoxicity against human SW620 cells assessed as cell growth level at 10 nM after 48 hrs by sulforhodamine B assay
# SK-MEL-2 = assay: Cytotoxicity against human SK-MEL-2 cells assessed as cell growth level at 10 nM after 48 hrs by sulforhodamine B assay
# OVCAR-5 = assay: Cytotoxicity against human OVCAR5 cells assessed as cell growth level at 10 nM after 48 hrs by sulforhodamine B assay
# 786-0 = assay: Cytotoxicity against human 786-0 cells assessed as cell growth level at 10 nM after 48 hrs by sulforhodamine B assay
# SN12C = assay: Cytotoxicity against human SN12C cells assessed as cell growth level at 10 nM after 48 hrs by sulforhodamine B assay
# UO-31 = assay: Cytotoxicity against human UO31 cells assessed as cell growth level at 10 nM after 48 hrs by sulforhodamine B assay
# T47D [4] = assay: Cytotoxicity against human T47D cells assessed as cell growth level at 10 nM after 48 hrs by sulforhodamine B assay
# MDA-MB-468 = assay: Cytotoxicity against human MDA-MB-468 cells assessed as cell growth level at 10 nM after 48 hrs by sulforhodamine B assay
# MOLT-4 = assay: Cytotoxicity against human MOLT4 cells assessed as cell growth level at 100 nM after 48 hrs by sulforhodamine B assay
# A498 = assay: Cytotoxicity against human A498 cells assessed as cell growth level at 100 nM after 48 hrs by sulforhodamine B assay
# HOP-92 = assay: Cytotoxicity against human HOP92 cells assessed as cell growth level at 10 uM after 48 hrs by sulforhodamine B assay
# NCI-H226 = assay: Cytotoxicity against human NCI-H226 cells assessed as cell growth level at 10 uM after 48 hrs by sulforhodamine B assay
# PC-3 = assay: Cytotoxicity against human PC3 cells assessed as cell growth level at 100 nM after 48 hrs by sulforhodamine B assay
# MCF7 = assay: Cytotoxicity against human MCF7 cells assessed as cell growth level at 100 nM after 48 hrs by sulforhodamine B assay
# T47D [5] = assay: Cytotoxicity against human T47D cells assessed as cell growth level at 100 nM after 48 hrs by sulforhodamine B assay
# NCI-H322M [6] = assay: Cytotoxicity against human NCI-H322M cells assessed as cell growth level at 1 uM after 48 hrs by sulforhodamine B assay
# HCC 2998 [7] = assay: Cytotoxicity against human HCC2998 cells assessed as cell growth level at 1 uM after 48 hrs by sulforhodamine B assay
# HCT-15 = assay: Cytotoxicity against human HCT15 cells assessed as cell growth level at 1 uM after 48 hrs by sulforhodamine B assay
# COLO 205 [8] = assay: Cytotoxicity against human COLO205 cells assessed as cell growth level at 10 uM after 48 hrs by sulforhodamine B assay
# HCC 2998 [9] = assay: Cytotoxicity against human HCC2998 cells assessed as cell growth level at 10 uM after 48 hrs by sulforhodamine B assay
# SF-268 [10] = assay: Cytotoxicity against human SF268 cells assessed as cell growth level at 1 uM after 48 hrs by sulforhodamine B assay
# ACHN = assay: Cytotoxicity against human ACHN cells assessed as cell growth level at 1 uM after 48 hrs by sulforhodamine B assay
# T47D [11] = assay: Cytotoxicity against human T47D cells assessed as cell growth level at 10 uM after 48 hrs by sulforhodamine B assay
# NCI-H23 = assay: Cytotoxicity against human NCI-H23 cells after 48 hrs by sulforhodamine B assay; details: NCI-H23, 48 h
# COLO 205 [12] = assay: Cytotoxicity against human COLO205 cells after 48 hrs by sulforhodamine B assay; details: COLO 205, 48 h
# SW-620 [13] = assay: Cytotoxicity against human SW620 cells assessed as cell growth level at 100 uM after 48 hrs by sulforhodamine B assay
# SF-268 [14] = assay: Cytotoxicity against human SF268 cells assessed as cell growth level at 100 uM after 48 hrs by sulforhodamine B assay
# SF-295 = assay: Cytotoxicity against human SF295 cells assessed as cell growth level at 100 uM after 48 hrs by sulforhodamine B assay
# OVCAR-3 = assay: Cytotoxicity against human OVCAR3 cells after 48 hrs by sulforhodamine B assay; details: OVCAR-3, 48 h
# SK-OV-3 = assay: Cytotoxicity against human SKOV3 cells after 48 hrs by sulforhodamine B assay; details: SK-OV-3, 48 h
# MDA-MB-231 = assay: Cytotoxicity against human MDA-MB-231/ATCC cells after 48 hrs by sulforhodamine B assay; details: MDA-MB-231, 48 h
# [15] = read-out: LC50 (the source's name)
# [16] = read-out: pLC50 (the source's name) (converted)
smiles,measurement,setting,value
O=c1oc2ccccc2cc1-c1csc(N/N=C/c2c[nH]c3ccccc23)n1,Activity,Malme-3M,-67%
same,Activity,SK-MEL-5,-46%
same,Activity,[1],8%
same,Activity,BT-549,-88%
same,Activity,NCI-H322M [2],103%
same,Activity,NCI-H460,79%
same,Activity,HT-29,106%
same,Activity,SW-620 [3],98%
same,Activity,SK-MEL-2,98%
same,Activity,OVCAR-5,102%
same,Activity,786-0,86%
same,Activity,SN12C,88%
same,Activity,UO-31,97%
same,Activity,T47D [4],101%
same,Activity,MDA-MB-468,94%
same,Activity,MOLT-4,97%
same,Activity,A498,96%
same,Activity,HOP-92,-14.45%
same,Activity,NCI-H226,42.82%
same,Activity,PC-3,102%
same,Activity,MCF7,95%
same,Activity,T47D [5],96%
same,Activity,NCI-H322M [6],92%
same,Activity,HCC 2998 [7],84%
same,Activity,HCT-15,84%
same,Activity,COLO 205 [8],28.15%
same,Activity,HCC 2998 [9],8.49%
same,Activity,SF-268 [10],86%
same,Activity,ACHN,72%
same,Activity,T47D [11],4.07%
same,GI50,NCI-H23; read-out: GI50,2.44 µM
same,LC50,NCI-H23; read-out: LC50,> 100 µM
same,TGI,NCI-H23; read-out: TGI,5.82 µM
same,GI50,NCI-H23; read-out: pGI50 (converted),2.45 µM
same,LC50,NCI-H23; read-out: pLC50 (converted),> 100 µM
same,TGI,NCI-H23; read-out: pTGI (converted),5.75 µM
same,GI50,COLO 205 [12]; read-out: GI50,1.92 µM
same,LC50 (concentration killing 50% of cells),COLO 205 [12]; read-out: LC50,6.55 µM
same,TGI,COLO 205 [12]; read-out: TGI,3.55 µM
same,GI50,COLO 205 [12]; read-out: pGI50 (converted),1.91 µM
same,LC50 (concentration killing 50% of cells),COLO 205 [12]; read-out: pLC50 (converted),6.61 µM
same,TGI,COLO 205 [12]; read-out: pTGI (converted),3.55 µM
same,Activity,SW-620 [13],-7%
same,Activity,SF-268 [14],-21%
same,Activity,SF-295,-71%
same,GI50,OVCAR-3; read-out: GI50,1.16 µM
same,CC50,OVCAR-3; [15],7.31 µM
same,TGI,OVCAR-3; read-out: TGI,2.91 µM
same,GI50,OVCAR-3; read-out: pGI50 (converted),1.15 µM
same,CC50,OVCAR-3; [16],7.24 µM
same,TGI,OVCAR-3; read-out: pTGI (converted),2.88 µM
same,GI50,SK-OV-3; read-out: GI50,3.95 µM
same,CC50,SK-OV-3; [15],> 100 µM
same,TGI,SK-OV-3; read-out: TGI,> 100 µM
same,GI50,SK-OV-3; read-out: pGI50 (converted),3.98 µM
same,CC50,SK-OV-3; [16],> 100 µM
same,TGI,SK-OV-3; read-out: pTGI (converted),100 µM
same,GI50,MDA-MB-231; read-out: GI50,1.39 µM
same,CC50,MDA-MB-231; [15],7.94 µM
same,TGI,MDA-MB-231; read-out: TGI,3.33 µM
same,GI50,MDA-MB-231; read-out: pGI50 (converted),1.38 µM
same,CC50,MDA-MB-231; [16],7.94 µM
same,TGI,MDA-MB-231; read-out: pTGI (converted),3.31 µM
